Measurements from ChEMBL document CHEMBL1201862, “PubChem BioAssay data set” (2004).
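Compound exposure: 48 hours, 5 concentrations, 96-well plates. Abbreviation: GI50, concentration required for 50% inhibition of growth.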 The source made the active and inactive calls. No stated cut-off is given here; in the data, active = GI50 up to about 1.1 µM and inactive = higher.

Assays:
Assay in all cases: NCI anticancer screen, dose series, 48 h
786-0 = tested on: 786-0
A498 = tested on: A498
A549 = tested on: A549
ACHN = tested on: ACHN
BT-549 = tested on: BT-549
CAKI-1 = tested on: CAKI-1
CCRF-CEM = tested on: CCRF-CEM
COLO 205 = tested on: COLO 205
DU-145 = tested on: DU-145
EKVX = tested on: EKVX
HCC 2998 = tested on: HCC 2998
HCT-116 = tested on: HCT-116
HCT-15 = tested on: HCT-15
HL-60 = tested on: HL-60
HOP-62 = tested on: HOP-62
HOP-92 = tested on: HOP-92
HT-29 = tested on: HT-29
Hs-578T = tested on: Hs-578T
IGROV-1 = tested on: IGROV-1
K562 = tested on: K562
KM12 = tested on: KM12
LOX IMVI = tested on: LOX IMVI
M14 = tested on: M14
MCF7 = tested on: MCF7
MDA-MB-231 = tested on: MDA-MB-231
MDA-MB-435 = tested on: MDA-MB-435
MDA-N = tested on: MDA-N
MOLT-4 = tested on: MOLT-4
Malme-3M = tested on: Malme-3M
NCI-H226 = tested on: NCI-H226
NCI-H23 = tested on: NCI-H23
NCI-H460 = tested on: NCI-H460
NCI-H522 = tested on: NCI-H522
NCI/ADR-RES = tested on: NCI/ADR-RES
OVCAR-3 = tested on: OVCAR-3
OVCAR-4 = tested on: OVCAR-4
OVCAR-5 = tested on: OVCAR-5
OVCAR-8 = tested on: OVCAR-8
PC-3 = tested on: PC-3
RPMI-8226 = tested on: RPMI-8226
RXF 393 = tested on: RXF 393
SF-268 = tested on: SF-268
SF-295 = tested on: SF-295
SF-539 = tested on: SF-539
SK-MEL-28 = tested on: SK-MEL-28
SK-MEL-2 = tested on: SK-MEL-2
SK-MEL-5 = tested on: SK-MEL-5
SK-OV-3 = tested on: SK-OV-3
SN12C = tested on: SN12C
SNB-19 = tested on: SNB-19
SNB-75 = tested on: SNB-75
SR = tested on: SR
SW-620 = tested on: SW-620
T47D = tested on: T47D
TK-10 = tested on: TK-10
U-251 = tested on: U-251
UACC-257 = tested on: UACC-257
UACC-62 = tested on: UACC-62
UO-31 = tested on: UO-31

Measured: GI50

CC(C)[Si]1(C(C)C)OCC2OC(n3c(C(=O)c4ccccc4)cc(=O)[nH]c3=O)CC2O[Si](C(C)C)(C(C)C)O1 (configuration not stated)
2.72 µM: HCT-15
inactive: 786-0 3.05 µM | A498 11.4 µM | A549 7.28 µM | ACHN 3.16 µM | BT-549 4.69 µM | CAKI-1 5.53 µM | CCRF-CEM 2.12 µM | COLO 205 3.72 µM | DU-145 11.6 µM | EKVX 3.71 µM | HCC 2998 1.65 µM | HCT-116 3.15 µM | HL-60 2.67 µM | HOP-62 7.03 µM | HOP-92 2.33 µM | HT-29 1.9 µM | Hs-578T 2.26 µM | IGROV-1 3.28 µM | K562 3.05 µM | KM12 2.31 µM | LOX IMVI 2 µM | M14 3.66 µM | MCF7 2.94 µM | MDA-MB-231 2.37 µM | MDA-MB-435 3.1 µM | MDA-N 3.2 µM | MOLT-4 1.88 µM | Malme-3M 3.75 µM | NCI-H226 2.94 µM | NCI-H23 2.52 µM | NCI-H460 3.58 µM | NCI-H522 1.7 µM | NCI/ADR-RES 10.2 µM | OVCAR-3 2.08 µM | OVCAR-4 2.93 µM | OVCAR-5 3.4 µM | OVCAR-8 1.99 µM | PC-3 2.2 µM | RPMI-8226 2.85 µM | RXF 393 2.54 µM | SF-268 2.78 µM | SF-295 3.78 µM | SF-539 2.88 µM | SK-MEL-28 3.72 µM | SK-MEL-2 5.05 µM | SK-MEL-5 4.37 µM | SK-OV-3 11.9 µM | SN12C 2.39 µM | SNB-19 7.71 µM | SNB-75 3.02 µM | SR 2.61 µM | SW-620 2.81 µM | T47D 4.36 µM | TK-10 3.24 µM | U-251 3.15 µM | UACC-257 2.34 µM | UACC-62 2.81 µM | UO-31 2.47 µM

COc1ccc(OC)c(NS(=O)(=O)c2ccc3nc(C)n(NS(=O)(=O)c4cc(OC)ccc4OC)c(=O)c3c2)c1
inactive: 786-0 > 100 µM | A498 > 100 µM | ACHN > 100 µM | BT-549 70.1 µM | CAKI-1 > 100 µM | CCRF-CEM 75.7 µM | COLO 205 > 100 µM | DU-145 > 100 µM | EKVX > 100 µM | HCC 2998 38.6 µM | HCT-116 21.7 µM | HL-60 26.2 µM | HOP-62 > 100 µM | HOP-92 > 100 µM | HT-29 74.8 µM | Hs-578T > 100 µM | IGROV-1 > 100 µM | K562 32.6 µM | KM12 62.5 µM | LOX IMVI 77.6 µM | M14 > 100 µM | MCF7 87.1 µM | MDA-MB-231 > 100 µM | MDA-MB-435 14.3 µM | MDA-N 41.7 µM | MOLT-4 15.2 µM | Malme-3M > 100 µM | NCI-H226 > 100 µM | NCI-H23 69.5 µM | NCI-H460 82.4 µM | NCI-H522 > 100 µM | NCI/ADR-RES > 100 µM | OVCAR-3 > 100 µM | OVCAR-4 93.3 µM | OVCAR-5 > 100 µM | OVCAR-8 > 100 µM | PC-3 78.9 µM | RPMI-8226 20.8 µM | RXF 393 > 100 µM | SF-268 > 100 µM | SF-295 > 100 µM | SF-539 > 100 µM | SK-MEL-28 > 100 µM | SK-MEL-2 > 100 µM | SK-MEL-5 26.4 µM | SK-OV-3 > 100 µM | SN12C > 100 µM | SNB-19 > 100 µM | SNB-75 > 100 µM | SR 14.8 µM | SW-620 96.4 µM | T47D > 100 µM | TK-10 > 100 µM | U-251 > 100 µM | UACC-257 > 100 µM | UACC-62 > 100 µM | UO-31 87.9 µM
> 100 µM: HCT-15
